Results taken from paper PMC7180948, “New Insights into 4-Anilinoquinazolines as Inhibitors of Cardiac Troponin I–Interacting Kinase (TNNi3K)” (Molecules, 2020).

Experiments:
Test in all cases: biochemical
Design in all cases: KINOMEscan competition binding panel (Eurofins DiscoverX), single concentration, percent inhibition
Settings in all cases: read-out: 15 at 1 µM % inhibition
MYO3A = MYO3A (Homo sapiens, UniProt Q8NEV4)
Summary of the method: (§1)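 Values come from single-concentration (1 µM) profiling in the Eurofins DiscoverX KINOMEscan competition-binding platform, which covers over 400 kinases.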

TBK1 = TBK1 (Homo sapiens, UniProt Q9UHD2)
Summary of the method: as §1

CAMK1D = CAMK1D (Homo sapiens, UniProt Q8IU85)
Summary of the method: as §1

LATS1 = LATS1 (Homo sapiens, UniProt O95835)
Summary of the method: as §1

JNK1 = molecular target: T1, JNK1 (Homo sapiens, UniProt P45983)
T1 construct: gene MAPK8
Summary of the method: as §1

PRKCQ = PRKCQ (Homo sapiens, UniProt Q04759)
Summary of the method: as §1

FLT3(ITD,D835V) = FLT3(ITD,D835V) (Homo sapiens, UniProt P36888, D835V/ITD)
Summary of the method: as §1

MAK = MAK (Homo sapiens, UniProt P20794)
Summary of the method: as §1

ABL2 = ABL2 (Homo sapiens, UniProt P42684)
Summary of the method: as §1

EPHA6 = EPHA6 (Homo sapiens, UniProt Q9UF33)
Summary of the method: as §1

PKN1 = PKN1 (Homo sapiens, UniProt Q16512)
Summary of the method: as §1

AKT3 = AKT3 (Homo sapiens, UniProt Q9Y243)
Summary of the method: as §1

GRK3 = GRK3 (Homo sapiens, UniProt P35626)
Summary of the method: as §1

MKNK2 = MKNK2 (Homo sapiens, UniProt Q9HBH9)
Summary of the method: as §1

MRCKA = molecular target: T2, MRCKA (Homo sapiens, UniProt Q5VT25)
T2 construct: gene CDC42BPA
Summary of the method: as §1

RET(V804M) = RET(V804M) (Homo sapiens, UniProt P07949, V804M)
Summary of the method: as §1

PAK6 = PAK6 (Homo sapiens, UniProt Q9NQU5)
Summary of the method: as §1

NEK1 = NEK1 (Homo sapiens, UniProt Q96PY6)
Summary of the method: as §1

BRSK1 = BRSK1 (Homo sapiens, UniProt Q8TDC3)
Summary of the method: as §1

[1] = molecular target: T3, ABL1(H396P)-nonphosphorylated (Homo sapiens, UniProt P00519, H396P)
T3 construct: nonphosphorylated
Summary of the method: as §1

VPS34 = molecular target: T4, VPS34 (Homo sapiens, UniProt Q8NEB9)
T4 construct: gene PIK3C3
Summary of the method: as §1

FGFR1 = FGFR1 (Homo sapiens, UniProt P11362)
Summary of the method: as §1

QSK = molecular target: T5, QSK (Homo sapiens, UniProt Q9Y2K2)
T5 construct: gene SIK3
Summary of the method: as §1

GRK7 = GRK7 (Homo sapiens, UniProt Q8WTQ7)
Summary of the method: as §1

GRK7, sequence (Q8WTQ7 whole entry): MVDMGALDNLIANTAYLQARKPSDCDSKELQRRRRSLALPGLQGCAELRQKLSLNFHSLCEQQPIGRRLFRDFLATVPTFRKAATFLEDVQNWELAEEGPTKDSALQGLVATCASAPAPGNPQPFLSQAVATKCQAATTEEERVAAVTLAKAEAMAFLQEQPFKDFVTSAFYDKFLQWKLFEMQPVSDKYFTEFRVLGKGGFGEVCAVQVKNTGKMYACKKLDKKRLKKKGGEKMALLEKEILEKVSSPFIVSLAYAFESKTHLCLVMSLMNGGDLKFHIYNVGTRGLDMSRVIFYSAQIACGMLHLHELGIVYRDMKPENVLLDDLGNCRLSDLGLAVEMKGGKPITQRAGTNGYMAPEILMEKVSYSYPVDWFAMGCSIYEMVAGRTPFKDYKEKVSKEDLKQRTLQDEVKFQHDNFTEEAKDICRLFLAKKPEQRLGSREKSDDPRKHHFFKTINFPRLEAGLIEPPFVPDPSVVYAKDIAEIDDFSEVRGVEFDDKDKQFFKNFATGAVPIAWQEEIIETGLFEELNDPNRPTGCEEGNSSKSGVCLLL
TBK1, sequence (Q9UHD2 whole entry): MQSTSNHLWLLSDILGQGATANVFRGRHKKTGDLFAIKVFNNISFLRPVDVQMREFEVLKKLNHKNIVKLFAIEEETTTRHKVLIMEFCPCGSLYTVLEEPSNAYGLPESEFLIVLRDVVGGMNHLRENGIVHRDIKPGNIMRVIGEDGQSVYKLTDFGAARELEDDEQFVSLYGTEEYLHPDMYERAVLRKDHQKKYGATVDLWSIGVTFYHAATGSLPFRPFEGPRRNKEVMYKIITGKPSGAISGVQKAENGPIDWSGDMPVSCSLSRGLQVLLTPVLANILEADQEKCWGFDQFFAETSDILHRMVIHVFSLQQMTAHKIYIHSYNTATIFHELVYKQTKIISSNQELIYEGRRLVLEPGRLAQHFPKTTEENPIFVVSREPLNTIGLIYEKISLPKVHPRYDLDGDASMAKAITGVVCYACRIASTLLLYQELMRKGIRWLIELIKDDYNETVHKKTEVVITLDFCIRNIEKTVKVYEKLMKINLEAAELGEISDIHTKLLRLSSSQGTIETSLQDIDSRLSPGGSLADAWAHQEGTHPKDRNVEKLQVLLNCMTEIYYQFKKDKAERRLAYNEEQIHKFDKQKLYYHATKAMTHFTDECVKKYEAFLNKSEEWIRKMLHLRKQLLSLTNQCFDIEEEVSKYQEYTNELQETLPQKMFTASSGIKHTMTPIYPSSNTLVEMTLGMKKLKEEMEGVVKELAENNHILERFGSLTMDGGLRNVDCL
BRSK1, sequence (Q8TDC3 whole entry): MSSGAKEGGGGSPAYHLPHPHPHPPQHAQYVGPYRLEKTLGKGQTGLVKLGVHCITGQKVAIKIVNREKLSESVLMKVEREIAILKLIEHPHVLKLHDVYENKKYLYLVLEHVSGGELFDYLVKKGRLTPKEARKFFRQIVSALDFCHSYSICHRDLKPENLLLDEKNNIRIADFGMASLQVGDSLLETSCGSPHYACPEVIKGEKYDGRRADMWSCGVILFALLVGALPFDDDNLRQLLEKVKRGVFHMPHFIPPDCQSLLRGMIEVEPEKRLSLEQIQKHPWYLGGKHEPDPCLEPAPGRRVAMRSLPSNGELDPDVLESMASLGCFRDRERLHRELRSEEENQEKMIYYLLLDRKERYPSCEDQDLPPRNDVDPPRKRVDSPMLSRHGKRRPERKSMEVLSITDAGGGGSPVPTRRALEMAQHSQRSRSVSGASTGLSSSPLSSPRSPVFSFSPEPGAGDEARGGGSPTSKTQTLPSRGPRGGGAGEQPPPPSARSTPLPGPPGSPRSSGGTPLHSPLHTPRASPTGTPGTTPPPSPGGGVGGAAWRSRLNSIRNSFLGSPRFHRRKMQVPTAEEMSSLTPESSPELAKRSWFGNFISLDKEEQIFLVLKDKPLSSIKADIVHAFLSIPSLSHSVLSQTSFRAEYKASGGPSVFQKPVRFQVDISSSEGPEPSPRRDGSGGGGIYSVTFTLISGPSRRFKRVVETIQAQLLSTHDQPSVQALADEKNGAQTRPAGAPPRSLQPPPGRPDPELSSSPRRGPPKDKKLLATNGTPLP
GRK3, sequence (P35626 whole entry): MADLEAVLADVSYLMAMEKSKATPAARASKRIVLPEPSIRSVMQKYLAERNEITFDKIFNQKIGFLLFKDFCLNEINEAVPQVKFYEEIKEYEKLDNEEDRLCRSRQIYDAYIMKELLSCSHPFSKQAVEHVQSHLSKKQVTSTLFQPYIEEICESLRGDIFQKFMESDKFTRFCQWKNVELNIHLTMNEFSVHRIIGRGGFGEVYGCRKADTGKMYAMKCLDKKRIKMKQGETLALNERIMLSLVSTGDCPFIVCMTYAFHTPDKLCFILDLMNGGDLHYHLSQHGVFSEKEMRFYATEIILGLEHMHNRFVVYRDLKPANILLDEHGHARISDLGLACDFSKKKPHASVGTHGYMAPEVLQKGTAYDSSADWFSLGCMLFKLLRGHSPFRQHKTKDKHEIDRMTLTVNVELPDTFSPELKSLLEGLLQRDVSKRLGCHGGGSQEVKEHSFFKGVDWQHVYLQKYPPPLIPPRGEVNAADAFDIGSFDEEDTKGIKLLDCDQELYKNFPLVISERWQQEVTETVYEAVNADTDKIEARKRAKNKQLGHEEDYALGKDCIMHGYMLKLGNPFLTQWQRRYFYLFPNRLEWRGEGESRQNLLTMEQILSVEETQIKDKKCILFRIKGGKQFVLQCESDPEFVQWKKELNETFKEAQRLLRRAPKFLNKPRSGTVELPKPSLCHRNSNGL
PAK6, sequence (Q9NQU5 whole entry): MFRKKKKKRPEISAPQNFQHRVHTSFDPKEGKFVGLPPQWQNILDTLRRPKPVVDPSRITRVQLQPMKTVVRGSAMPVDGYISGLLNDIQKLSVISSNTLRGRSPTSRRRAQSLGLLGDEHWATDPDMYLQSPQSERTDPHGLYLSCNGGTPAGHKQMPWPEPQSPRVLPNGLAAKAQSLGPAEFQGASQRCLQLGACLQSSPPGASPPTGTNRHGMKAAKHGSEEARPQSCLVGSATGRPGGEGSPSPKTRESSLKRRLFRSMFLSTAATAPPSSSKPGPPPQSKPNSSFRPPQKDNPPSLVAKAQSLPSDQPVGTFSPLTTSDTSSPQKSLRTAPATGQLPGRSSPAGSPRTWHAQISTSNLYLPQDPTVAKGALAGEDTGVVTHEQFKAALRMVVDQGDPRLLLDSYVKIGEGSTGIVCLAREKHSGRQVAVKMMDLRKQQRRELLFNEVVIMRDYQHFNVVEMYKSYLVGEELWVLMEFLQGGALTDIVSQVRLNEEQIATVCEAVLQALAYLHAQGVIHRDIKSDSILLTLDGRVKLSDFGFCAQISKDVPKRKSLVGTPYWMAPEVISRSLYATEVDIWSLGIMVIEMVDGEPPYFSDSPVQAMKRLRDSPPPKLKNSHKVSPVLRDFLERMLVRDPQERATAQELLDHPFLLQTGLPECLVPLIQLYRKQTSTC
ABL2, sequence (P42684 whole entry): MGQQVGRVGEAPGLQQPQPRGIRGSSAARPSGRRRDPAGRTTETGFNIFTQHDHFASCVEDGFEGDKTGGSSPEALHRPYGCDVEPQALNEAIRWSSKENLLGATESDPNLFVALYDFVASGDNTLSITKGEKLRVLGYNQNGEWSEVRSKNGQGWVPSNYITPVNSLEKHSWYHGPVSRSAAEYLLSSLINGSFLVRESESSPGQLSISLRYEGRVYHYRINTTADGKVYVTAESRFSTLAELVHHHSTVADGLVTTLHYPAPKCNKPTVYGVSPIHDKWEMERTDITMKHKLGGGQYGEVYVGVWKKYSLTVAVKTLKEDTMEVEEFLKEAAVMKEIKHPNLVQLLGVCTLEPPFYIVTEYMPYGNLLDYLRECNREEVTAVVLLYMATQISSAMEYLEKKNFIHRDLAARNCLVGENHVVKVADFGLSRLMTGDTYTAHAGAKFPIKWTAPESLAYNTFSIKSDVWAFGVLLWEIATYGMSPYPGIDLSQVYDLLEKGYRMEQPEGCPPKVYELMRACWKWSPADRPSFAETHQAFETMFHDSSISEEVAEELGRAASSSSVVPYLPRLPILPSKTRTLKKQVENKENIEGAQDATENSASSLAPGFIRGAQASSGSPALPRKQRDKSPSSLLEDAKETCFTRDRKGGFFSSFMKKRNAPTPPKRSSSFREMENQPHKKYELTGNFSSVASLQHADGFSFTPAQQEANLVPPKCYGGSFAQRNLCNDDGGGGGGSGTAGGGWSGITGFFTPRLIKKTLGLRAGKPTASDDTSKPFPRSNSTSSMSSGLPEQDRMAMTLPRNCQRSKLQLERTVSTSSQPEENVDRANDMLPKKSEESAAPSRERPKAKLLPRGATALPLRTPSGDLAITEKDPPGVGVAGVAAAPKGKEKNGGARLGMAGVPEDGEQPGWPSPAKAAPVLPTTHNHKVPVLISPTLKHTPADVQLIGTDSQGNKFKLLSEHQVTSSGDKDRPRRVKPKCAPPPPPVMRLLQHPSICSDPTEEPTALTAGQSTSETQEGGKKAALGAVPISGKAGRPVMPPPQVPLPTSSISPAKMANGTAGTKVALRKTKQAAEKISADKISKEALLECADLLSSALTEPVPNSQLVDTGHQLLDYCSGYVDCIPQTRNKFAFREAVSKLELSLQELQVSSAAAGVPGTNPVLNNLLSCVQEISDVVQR
T1 sequence (P45983 whole entry): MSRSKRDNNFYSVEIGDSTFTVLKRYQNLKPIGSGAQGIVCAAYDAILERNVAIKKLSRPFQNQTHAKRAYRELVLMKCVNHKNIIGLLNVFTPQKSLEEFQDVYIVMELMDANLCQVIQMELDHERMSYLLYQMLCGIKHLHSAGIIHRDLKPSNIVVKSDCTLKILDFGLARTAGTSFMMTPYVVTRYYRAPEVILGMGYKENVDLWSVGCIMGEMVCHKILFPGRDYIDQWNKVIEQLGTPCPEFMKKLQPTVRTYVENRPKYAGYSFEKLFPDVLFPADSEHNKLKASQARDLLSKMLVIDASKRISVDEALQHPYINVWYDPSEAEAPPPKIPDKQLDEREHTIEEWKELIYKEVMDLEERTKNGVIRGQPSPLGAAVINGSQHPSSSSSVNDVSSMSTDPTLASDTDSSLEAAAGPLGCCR

- inhibition at 1 µM (MYO3A): 0%
- inhibition at 1 µM (TBK1): 0%
- inhibition at 1 µM (CAMK1D): 0%
- inhibition at 1 µM (LATS1): 14%
- inhibition at 1 µM (JNK1): 14%
- inhibition at 1 µM (PRKCQ): 16%
- inhibition at 1 µM (FLT3(ITD,D835V)): 26%
- inhibition at 1 µM (MAK): 8%
- inhibition at 1 µM (ABL2): 0%
- inhibition at 1 µM (EPHA6): 0%
- inhibition at 1 µM (PKN1): 5%
- inhibition at 1 µM (AKT3): 4%
- inhibition at 1 µM (GRK3): 32%
- inhibition at 1 µM (MKNK2): 38%
- inhibition at 1 µM (MRCKA): 0%
- inhibition at 1 µM (RET(V804M)): 0%
- inhibition at 1 µM (PAK6): 3%
- inhibition at 1 µM (NEK1): 1%
- inhibition at 1 µM (BRSK1): 0%
- inhibition at 1 µM [1]: 31%
- inhibition at 1 µM (VPS34): 25%
- inhibition at 1 µM (FGFR1): 10%
- inhibition at 1 µM (QSK): 22%
- inhibition at 1 µM (GRK7): 13%
Compound: CNS(=O)(=O)c1ccc(N(C)C)c(Nc2nc(C)nc3cc(OC)c(OC)cc23)c1 [compound 15, 3-((6,7-dimethoxy-2-methylquinazolin-4-yl)amino)-4-(dimethylamino)-N-methylbenzenesulfonamide]
